Experimental findings from PMC5700043, “Structural insights into substrate and inhibitor binding sites in human indoleamine 2,3-dioxygenase 1” (Nature Communications, 2017) are described below.

In assay [1] the target is T1, human indoleamine 2,3-dioxygenase 1 (hIDO1) (Homo sapiens, UniProt P14902, F270G).
T1 construct: gene IDO1
The experiment in a line: X-ray crystal structure ([…] Å); activity titration (inhibition). It is filed as biochemical.

Assay [2] deals with T2, human indoleamine 2,3-dioxygenase 1 (hIDO1) (Homo sapiens, UniProt P14902).
T2 construct: gene IDO1
Nature of the assay: X-ray crystal structure ([…] Å); activity titration. It is filed as biochemical.

In assay [3] the target is T2, human indoleamine 2,3-dioxygenase 1 (hIDO1). The experiment in a line: X-ray crystal structure ([…] Å); steady-state activity. The format is binding.
Assay [4] has as its target T1, human indoleamine 2,3-dioxygenase 1 (hIDO1). The experiment in a line: X-ray crystal structure ([…] Å), two Trp bound; steady-state activity. It is filed as binding.

T2 sequence (P14902 whole entry): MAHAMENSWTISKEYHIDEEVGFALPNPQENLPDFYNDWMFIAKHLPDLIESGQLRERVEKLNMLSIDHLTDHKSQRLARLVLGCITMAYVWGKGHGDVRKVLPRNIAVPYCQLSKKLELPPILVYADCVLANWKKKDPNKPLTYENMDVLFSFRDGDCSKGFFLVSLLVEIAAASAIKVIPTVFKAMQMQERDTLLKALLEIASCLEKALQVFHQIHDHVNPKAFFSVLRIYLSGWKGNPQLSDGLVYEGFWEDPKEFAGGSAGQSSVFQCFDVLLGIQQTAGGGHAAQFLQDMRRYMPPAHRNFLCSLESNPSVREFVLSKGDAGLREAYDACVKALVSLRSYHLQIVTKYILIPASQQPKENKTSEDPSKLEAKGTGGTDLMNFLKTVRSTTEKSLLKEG
T1 sequence (P14902 11-403 F270G): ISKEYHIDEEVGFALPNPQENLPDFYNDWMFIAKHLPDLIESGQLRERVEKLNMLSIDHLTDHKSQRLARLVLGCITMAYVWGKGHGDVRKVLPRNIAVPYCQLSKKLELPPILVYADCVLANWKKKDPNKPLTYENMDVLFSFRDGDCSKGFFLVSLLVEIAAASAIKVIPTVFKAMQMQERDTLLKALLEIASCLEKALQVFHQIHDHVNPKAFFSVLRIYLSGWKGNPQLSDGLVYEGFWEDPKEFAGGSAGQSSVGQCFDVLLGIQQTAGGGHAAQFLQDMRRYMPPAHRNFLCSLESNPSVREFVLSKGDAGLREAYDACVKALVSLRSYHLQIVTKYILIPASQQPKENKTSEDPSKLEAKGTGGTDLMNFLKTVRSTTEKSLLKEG

For orientation: Kd means the free concentration of one partner at which half of the binding sites on the other are occupied at equilibrium, for simple one-to-one binding. Read a low Kd as higher affinity. As for `OCCc1c[nH]c2ccccc12` [IDE, 3-indole ethanol], the dissociation constant Kd in assay [1] is around 100 µM; in assay [2], around 230 µM.

Consider `N[C@@H](Cc1c[nH]c2ccccc12)C(=O)O` [Trp], for which the “X-ray crystal structure (2.40 Å); steady-state activity” value in assay [3] was “The substrate Trp binds in the distal heme pocket, which is enclosed by the JK-Loop^C and the DE-Loop”. In addition, the “X-ray crystal structure (3.03 Å), two Trp bound; steady-state activity” value in assay [4] is “Crystal structure of the F270G-CN-Trp complex in a two Trp-bound state, where both the Sa and Si sites are occupied”.
